Data as given in paper PMC3700413 (Journal of medicinal chemistry, 2008).
Entries after “also recorded” stand apart in the source; their conditions may differ. Like-named read-outs stand apart in the source and are kept apart here.

What was measured:
CB2 cannabinoid receptor [1] = molecular target: T1, CB2 cannabinoid receptor (Mus musculus, UniProt P47936); conditions: earlier work on adamantyl substituents at C3 of Δ8-THC; cited from earlier work
CB2 cannabinoid receptor [2] = molecular target: T1, CB2 cannabinoid receptor; assay: Competitive [3H]CP55,940 binding assay, mouse spleen membranes; conditions: rCB1 versus mCB2 Ki values

T1 sequence (P47936 whole entry): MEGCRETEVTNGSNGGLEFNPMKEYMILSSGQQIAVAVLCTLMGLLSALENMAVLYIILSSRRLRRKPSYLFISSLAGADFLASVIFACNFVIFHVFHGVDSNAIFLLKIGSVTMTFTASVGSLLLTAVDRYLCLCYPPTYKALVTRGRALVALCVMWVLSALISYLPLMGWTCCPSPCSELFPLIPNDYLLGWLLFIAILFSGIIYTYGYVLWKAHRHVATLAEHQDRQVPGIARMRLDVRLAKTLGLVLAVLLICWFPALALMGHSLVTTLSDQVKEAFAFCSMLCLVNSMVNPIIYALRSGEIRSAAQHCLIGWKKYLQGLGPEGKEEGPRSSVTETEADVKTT

Row | SMILES | CB1/CB2 receptor subtype selectivity (in words) (CB2 cannabinoid receptor [1]) | CB1/CB2 receptor subtype selectivity (in words) (CB2 cannabinoid receptor [2])
1 | CC1=CC[C@@H]2[C@@H](C1)c1c(O)cc(C34CC5CC(CC(C5)C3)C4)cc1OC2(C)C [Compound 11, 3-(adamant-1′-yl)-Δ^8-THC] | substantial CB1 selectivity | 
2 | CC1=CC[C@@H]2[C@@H](C1)c1c(O)cc([C@H]3C[C@@H]4CC[C@]3(C)C4(C)C)cc1OC2(C)C [Compound 8a, (6aR-trans)-3-(endo-1′,7′,7′-Trimethylbicyclo[2.2.1]hept-2′-yl)-6a,7,10,10atetrahydro-6,6,9-trimethyl-6H-dibenzo[b,d]pyran-1-ol] |  | no subtype selectivity
3 | CC1=CC[C@@H]2[C@@H](C1)c1c(ccc(C[C@@H]3C[C@@H]4CC[C@]3(C)C4(C)C)c1O)OC2(C)C [Compound 8d, (6aR-trans)-3-(exo-1′,7′,7′-Trimethylbicyclo[2.2.1]hept-2′-ylmethyl)-6a,7,10,10a-tetrahydro-6,6,9-trimethyl-6H-dibenzo[b,d]pyran-1-ol] |  | nonselective; also recorded: complete loss of subtype selectivities
4 | CC1=CC[C@@H]2[C@@H](C1)c1c(ccc(C[C@H]3C[C@@H]4CC[C@]3(C)C4(C)C)c1O)OC2(C)C [Compound 8c, (6aR-trans)-3-(endo-1′,7′,7′-Trimethylbicyclo[2.2.1]hept-2′-ylmethyl)-6a,7,10,10a-tetrahydro-6,6,9-trimethyl-6H-dibenzo[b,d]pyran-1-ol] |  | nonselective; also recorded: complete loss of subtype selectivities
5 | CC1=CCC2C(C1)c1c(O)cc(C3C4CC5CC(C4)CC3C5)cc1OC2(C)C (centres unmarked) [adamant-2′-yl analog] | CB2 selective | 
